For the test, the system named is CEM cells HIV-1 protection, formazan growth assay. The test is described as follows: NCI AIDS Antiviral Assay. Particulars: for pIC50: measured here: growth of uninfected CEM cells. In short, it runs like this:
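Steps: treat uninfected and HIV-1-infected human CEM cells at five drug levels; quantify growth by soluble formazan; retest any compound reaching 50% protection; classify actives from the retest.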

pEC50, pIC50: −log10 of the molar value. Calls of active or inactive are those of the source.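 Rule for the calls: active = compounds giving half or more protection of infected cells from virus-caused growth loss, again on retest; inactive = the rest.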

With `O=C(O)CCCCCCC[C@@H]1S[C@H]1CCCCCCO`, the outcome was inactive.

One may read the pEC50 as the negative decadic logarithm of the EC50, by convention in mol/L. For orientation: pIC50 means −log10 of the IC50, conventionally taken in molar units. As for `COc1ccc2c(c1)C(=O)[C@@](Nc1ccc(C=O)cc1)(OC)[C@@](OC)(c1ccc([N+](=O)[O-])cc1)O2`, the pEC50 is less than 3.70 and the pIC50 is 4.07.

With `S=C(N/N=C/c1ccccc1)NC12CC3CC(CC(C3)C1)C2`, the outcome was inactive.

Regarding `COc1ccc(Sc2ccccc2[N+](=O)[O-])cc1`, the outcome was inactive.

Consider `COc1ccc(NC(=S)N/N=C(\c2ccccc2)c2ccccn2)cc1`, for which the pEC50 was less than 6.70 and the negative logarithm of the IC50 (pIC50) was 7.04.

For `CC(=O)C1(N=Nc2ccc(S(=O)(=O)Nc3onc(C)c3C)cc2)CCOC1=O` (stereo not drawn), the pEC50 was less than 3.70 and the pIC50 is less than 3.70.

For the compound `C/C(=N/N)c1ccc2[nH]c3c(C)cc([N+](=O)[O-])c(C)c3c2c1`, the pEC50 was less than 4.61 and the negative-log IC50 (pIC50) is 5.31.

With `Cc1ccc(/C(=C\C(=O)C(=O)NC23CC4CC(CC(C4)C2)C3)Sc2ccccc2)cc1`, the pEC50 was less than 3.70 and the pIC50 was 3.93.

Take `COc1ccc(/C=C2\CCCC(CN(C)C)C2=O)cc1` (stereo not drawn): the pEC50 was less than 3.70 and the pIC50 was 5.99.

For the compound `NC1=NC2(O)c3ccccc3C(=O)C2(O)N1` (stereo not drawn), the pEC50 was less than 4.34 and the pIC50 is 4.54.

Consider `CCOC(=O)C(C)(C)C(OP(OCC)OCC)=C(C)C`, for which the pEC50 was less than 3.23 and the negative logarithm of the IC50 (pIC50) was less than 3.23.

Take `CN(C)c1ccc(N=Nc2ccc3c(c2)C(=O)c2ccccc2C3=O)cc1`: the pEC50 is less than 3.70 and the pIC50 is less than 3.70.

As to `CNC(=O)O/N=C(/C)c1cccc([N+](=O)[O-])c1`, the pEC50 was less than 3.70 and the negative-log IC50 (pIC50) is less than 3.70.

Turning to `CC1=C(/C(C)=C\C(=O)O)CC2C(C)C(=O)CO[C@H]2C1` (stereo partly drawn), the outcome was inactive.

For the compound `c1ccc2c(c1)Sc1ccccc1N2CCCN1c2ccccc2Sc2ccccc21`, the pEC50 was less than 4.30 and the negative logarithm of the IC50 (pIC50) was less than 4.30.

As for `O=c1cc(-c2ccccc2)oc2cc(Oc3nnnn3-c3ccccc3)ccc12`, the pEC50 is less than 3.70 and the negative logarithm of the IC50 (pIC50) was 4.37.

With `COC(=O)/C(=C/c1ccc(OC)cc1)C(C(=O)O)=C1CCCC1`, the pEC50 is less than 3.80.

On to `Cn1c2nc(=Nc3ccc(Cl)cc3)n3ccc4ccccc4c3c2c(=O)n1-c1ccccc1`, for which the pEC50 was less than 3.70 and the pIC50 is 3.80.

In the case of `CC(=O)O[C@@H]1CCN(C(=O)C(NC(=O)OC(C)(C)C)C(C)C)[C@@H]1C(O)CC(=O)O` (stereo partly drawn), the pEC50 is less than 3.70 and the pIC50 was less than 3.70.

In the case of `N#CC(NCc1cccc(CNC(C#N)c2ccccc2)c1)c1ccccc1` (stereo not drawn), the pEC50 is less than 3.70 and the pIC50 is 4.05.

As to `CC1=CCCC2C(C=O)(C1)CC(C)C2(CO)CC/C(=C/CO)CO` (stereo not drawn), the outcome was inactive.

On to `C=C(c1ccccc1)[C@@]1(O)CC[C@@H]1N(CC#N)Cc1ccccc1`, for which the outcome was inactive.

For the compound `CCn1c2ccccc2c2ccc3c(c21)C(=O)c1ccccc1C3=O`, the pEC50 is less than 5.49 and the pIC50 was less than 5.49.

For `O=C(CCC1C(=O)NC(=S)NC1=O)c1ccc2ccccc2c1`, the pEC50 was less than 3.96 and the negative logarithm of the IC50 (pIC50) is less than 3.96.

For the compound `COC(=O)c1ccc2c(c1)CC1(C2)Cc2cc3c(c(C(=O)OC)c2C1)CCCC3` (stereo not drawn), the pEC50 is less than 3.70 and the pIC50 is less than 3.70.

As to `O=S(=O)(Sc1ccccc1)c1ccccc1`, the pEC50 was less than 4.09 and the negative logarithm of the IC50 (pIC50) is 4.86.

For the compound `CCCCCCc1cc2c(O)c(C(c3ccccc3)c3c(O)c4cc(CCCCCC)c(O)cc4oc3=O)c(=O)oc2cc1O`, the pEC50 is less than 3.70 and the negative logarithm of the IC50 (pIC50) is 5.25.

Regarding `Cc1ccc(N=Nc2c(-c3ccccc3)nn(C(=O)CC(=O)Nc3ccc(Cl)cc3)c2-c2ccccc2)cc1`, the pEC50 was less than 5.01 and the pIC50 was less than 5.01.

Turning to `O=c1c2c(c1=O)-c1ccccc1CN2`, the pEC50 was less than 3.70 and the pIC50 was less than 3.70.

Turning to `COc1cc(C2c3[nH]c4ccc(F)cc4c3C[C@H]3COC(=O)N23)cc(OC)c1O` (stereo partly drawn), the pEC50 is less than 3.70 and the negative logarithm of the IC50 (pIC50) is 6.24.

With `N#CC1(C#N)OC12CCS(=O)(=O)c1ccccc12` (stereo not drawn), the pEC50 is less than 3.30 and the pIC50 was 4.05.

As to `O=C(O)/C=C\C(=O)Nc1ccc(S(=O)(=O)c2ccc(NC(=O)/C=C\C(=O)O)cc2)cc1`, the pEC50 was less than 3.25 and the pIC50 is less than 3.25.

Take `CC12CCC3c4ccc(OS(=O)(=O)O)cc4CCC3C1CC(O)C2O` (stereo not drawn): the outcome was inactive.

Take `O=C(C(=Cn1c(=O)cc[nH]c1=S)C(=O)c1ccccc1)c1ccccc1`: the result was inactive.

With `CCc1c(C)c2cc(N)ccc2[nH]c1=O`, the pEC50 is less than 3.70 and the negative logarithm of the IC50 (pIC50) was 4.53.

`COC(=O)/C=C\C(C#N)(C#N)N=Cc1cccs1`: the pEC50 was less than 5.70 and the negative logarithm of the IC50 (pIC50) was 6.41.

Regarding `Cc1nc2ccc(Br)cc2c(=O)n1-c1nnc(C(C)(C)C)s1`, the pEC50 is less than 3.70 and the pIC50 is less than 3.70.

For `CCOC(=O)C1(c2ccccc2)C(=O)Oc2ccccc21` (stereo not drawn), the pEC50 is 4.88 and the pIC50 was 4.19.

Turning to `CC(C)=CCC[C@@H](C)c1c(O)c(O)c(C)c2nccnc12`, the pEC50 is less than 3.70 and the pIC50 is 4.42.

As to `O=C1CSC(c2ccccc2O)N1c1ccc(-c2ccc(-n3c(-c4ccccc4)nc4ccccc4c3=O)cc2)cc1` (stereo not drawn), the pEC50 was less than 3.70 and the negative-log IC50 (pIC50) was 4.92.

In the case of `COc1ccc2nc3ccccc3c(NCCCCCN(CCCl)CCCl)c2c1`, the pEC50 was less than 3.61 and the pIC50 is 6.55.

Consider `C=[CH][Sn]([CH]=C)([S]c1cccc2cccnc12)[S]c1cccc2cccnc12`, for which the outcome was inactive.

Turning to `CCOC(=O)C1c2[nH]c3ccccc3c2CCN1C(=O)c1ccco1` (stereo not drawn), the pEC50 is less than 4.11 and the negative logarithm of the IC50 (pIC50) was less than 4.11.

`Cc1c(Cl)cccc1NC(=O)C(=O)C1C(=O)CC(C)(C)CC1=O`: the pEC50 was less than 3.13 and the pIC50 was less than 3.13.

Regarding `C=CCC(C(=N)C(C#N)(CC=C)C1=CCCCC1)C1=CCCCC1` (stereo not drawn), the pEC50 is less than 4.01 and the negative logarithm of the IC50 (pIC50) is 4.09.

As to `N=c1oc2ccc3ccccc3c2cc1C(N)=S`, the pEC50 was less than 3.70 and the pIC50 is 5.02.

Turning to `O=C(CC(=O)Nc1ccccc1Cl)NNC(c1cc(N=Nc2ccc(Br)cc2)ccc1O)P(O)O` (stereo not drawn), the pEC50 is less than 4.00 and the pIC50 is 5.88.

As to `O=c1[nH]nc2ccccc2c1Cl`, the pEC50 was less than 4.40 and the pIC50 is 5.17.

For `Cc1cc(NCCCCCCNc2cc(C)nc3ccc(Cl)cc23)c2cc(Cl)ccc2n1`, the pEC50 was less than 5.16 and the pIC50 was less than 5.16.

Consider `NC(N)=N/N=C(/c1nc2ccc([N+](=O)[O-])cc2[nH]c1=O)C(O)c1ccco1` (stereo not drawn), for which the pEC50 is less than 3.60 and the pIC50 is 3.85.

Consider `Cc1cc(N=Nc2ccccc2)ccc1NCS(=O)(=O)O`, for which the pEC50 is less than 3.70 and the pIC50 was 3.93.

On to `NC(CSS(=O)(=O)O)=NCCSS(=O)(=O)O`, for which the pEC50 is less than 3.70 and the pIC50 is 3.96.

For the compound `N#CN=C(N)NC(=O)/C=C/C=C/c1ccc(Cl)cc1`, the result was inactive.

With `COc1cc(N(C)C)c(OC)cc1C=C1C=CC=C1`, the pEC50 is less than 3.01 and the pIC50 was 6.39.

As for `CN(C)CCCCC1CCN(CC(=O)N2c3ccccc3NC(=O)c3ccccc32)CC1`, the pEC50 is less than 3.52 and the pIC50 is 3.81.

On to `CCOC(=O)CC1=CSC2=NCCN12`, for which the result was inactive.

In the case of `N=C1/C(=C/c2ccccc2)C(=O)N=C2SC=NN12`, the pEC50 was less than 3.70 and the negative logarithm of the IC50 (pIC50) was less than 3.70.

`CC(C)=C1C2CCC1C(CO)C2CO` (stereo not drawn): the pEC50 is less than 3.34 and the negative logarithm of the IC50 (pIC50) was less than 3.34.

Turning to `COC1CC2(C[Si](C)(C)C)OC(=O)OC2C(C)O1` (stereo not drawn), the result was inactive.

For the compound `O=C(OCc1ccccc1)N1c2cc([N+](=O)[O-])ccc2C(=O)N2CCC[C@H]2C1O` (stereo partly drawn), the pEC50 was less than 3.70 and the pIC50 was 3.86.

Turning to `Cc1cccc(/C(Br)=C2/OC(=O)c3ccccc32)c1`, the pEC50 is less than 3.70 and the pIC50 was 3.74.

Take `CC1(C)S[C@@H]2[C@H](NC(=O)C3(N)CCCC3)C(=O)N2[C@H]1C(=O)O`: the pEC50 is less than 3.70 and the negative-log IC50 (pIC50) was less than 3.70.

`CCCCCOB(OCCCCC)OCCCCC`: the result was inactive.

On to `C=C1CC(Cn2ccc(=O)[nH]c2=O)(c2ccc(-c3ccccc3)cc2)OC1=O` (stereo not drawn), for which the pEC50 is less than 4.70 and the negative logarithm of the IC50 (pIC50) was 6.32.

Consider `OCC1CC(F)C(n2cnc3c(F)ncnc32)O1` (stereo not drawn), for which the pEC50 was less than 4.31 and the negative-log IC50 (pIC50) is 4.44.

For `C=C1C(=O)[C@@]23CC1C(O)[C@@H](OC(C)=O)[C@@H]2C1(C)C(OC(C)=O)C[C@@H](OC(C)=O)C(C)(C)[C@@H]1C[C@H]3OC(C)=O` (stereo partly drawn), the pEC50 was less than 3.70 and the negative logarithm of the IC50 (pIC50) is 6.07.

In the case of `COc1ccc(Cc2nc3ccccc3s2)cc1OC`, the pEC50 is less than 3.90 and the negative logarithm of the IC50 (pIC50) is 4.86.

Take `CC1CC[C@H]2[C@@H]1[C@H]1[C@@H](CC[C@@]23CCc2ccccc2O3)C1(C)C` (stereo partly drawn): the pEC50 was less than 4.94 and the pIC50 was less than 4.94.

In the case of `Cc1ncc([N+](=O)[O-])n1CC[N+](C)([O-])CCCCn1ccnc1[N+](=O)[O-]` (stereo not drawn), the result was inactive.

As for `N#Cc1nc(CCN2C(=O)c3ccccc3C2=O)oc1N`, the pEC50 was less than 3.70 and the pIC50 was less than 3.70.

For the compound `CCOC(=O)C1C/C2=C(/CCCCCCCCCC2)SCCCS1` (stereo not drawn), the pEC50 is less than 3.70 and the pIC50 is 4.57.

In the case of `CCCCCCCCCCCCCCCCCCNc1nc(=O)n(C2CC(OC(C)=O)C(COP(=O)(O)OCC3CCC(n4ccc(NC(=O)CCCCCCCCCCCCCCC)nc4=O)O3)O2)cc1F` (stereo not drawn), the negative logarithm of the EC50 (pEC50) was 5.00 and the negative logarithm of the IC50 (pIC50) is 4.35.

Regarding `CCC(CCCN)Nc1cc(OC)cc2c(C)ccnc12` (stereo not drawn), the pEC50 was less than 3.70 and the pIC50 is 5.13.

As for `COc1ccc(C2C3=C(COC3=O)OC(C)(C)Oc3cc4c(cc32)OCO4)cc1` (stereo not drawn), the pEC50 is less than 3.70 and the negative logarithm of the IC50 (pIC50) was 4.86.

The record behind these values is PubChem BioAssay AID179 (DTP/NCI, 2004).
